Experimental data taken from ChEMBL document CHEMBL1201862, “PubChem BioAssay data set” (2004).
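Five compound concentrations were applied to cells in 96-well plates for 48 hours; endpoints were derived by simple linear interpolation of the resulting dose-response curve. GI50: concentration for 50% inhibition of growth.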 Calls of active or inactive are those of the source. No stated cut-off is given here; in the data, active = GI50 up to about 1.1 µM and inactive = higher.

Experiments:
Assay in all cases: NCI anticancer screen, dose series, 48 h
[1] = test system: CAKI-1
[2] = test system: KM12
[3] = test system: HCT-15
[4] = test system: NCI/ADR-RES
[5] = test system: SK-MEL-2
[6] = test system: MDA-MB-435
[7] = test system: Malme-3M
[8] = test system: SK-OV-3
[9] = test system: DU-145
[10] = test system: NCI-H226
[11] = test system: RXF 393
[12] = test system: SNB-75
[13] = test system: UACC-62
[14] = test system: 786-0
[15] = test system: HOP-92
[16] = test system: SK-MEL-28
[17] = test system: SR
[18] = test system: MDA-N
[19] = test system: HCC 2998
[20] = test system: SK-MEL-5

Measured: GI50

C1=N\c2ccc(cc2)-c2ccc(cc2)/N=C\c2ccccc2OCc2cccc(n2)COc2ccccc2/1
> 100 µM: [3]
inactive: [1] > 58.5 µM | [2] > 100 µM | [4] > 100 µM | [5] 27.6 µM | [6] > 100 µM | [7] > 82.8 µM | [8] 30.1 µM | [9] > 80.5 µM | [10] 39.5 µM | [11] 15.2 µM | [12] 2.83 µM | [13] 39.4 µM | [14] 9.38 µM | [15] 10.9 µM | [16] 84.9 µM | [17] > 100 µM | [18] > 100 µM | [19] > 100 µM | [20] > 31.2 µM

COC(=O)c1sc2c(Cl)c(Cl)sc2c1Cl
> 100 µM: [3]
inactive: [1] > 100 µM | [2] > 100 µM | [4] > 100 µM | [5] > 100 µM | [6] > 100 µM | [7] > 100 µM | [8] > 100 µM | [9] > 100 µM | [10] > 100 µM | [11] > 100 µM | [12] > 100 µM | [13] > 100 µM | [14] 43.8 µM | [15] > 100 µM | [16] > 100 µM | [17] > 100 µM | [18] > 100 µM | [19] > 100 µM | [20] > 100 µM
